Counter-ions that a name gives are not always drawn.
Tests used:
Format in all cases: biochemical
[1] = target: T1, Human recombinant monoamine oxidase MAO-A (Homo sapiens, UniProt P21397); experiment: Monoamine oxidase assay, kynuramine fluorescence, MAO-A; conditions: Ki (IC50) determined at Vmax/2; range class
T1 construct: purchased Sigma Aldrich
T1 sequence (P21397 1-527): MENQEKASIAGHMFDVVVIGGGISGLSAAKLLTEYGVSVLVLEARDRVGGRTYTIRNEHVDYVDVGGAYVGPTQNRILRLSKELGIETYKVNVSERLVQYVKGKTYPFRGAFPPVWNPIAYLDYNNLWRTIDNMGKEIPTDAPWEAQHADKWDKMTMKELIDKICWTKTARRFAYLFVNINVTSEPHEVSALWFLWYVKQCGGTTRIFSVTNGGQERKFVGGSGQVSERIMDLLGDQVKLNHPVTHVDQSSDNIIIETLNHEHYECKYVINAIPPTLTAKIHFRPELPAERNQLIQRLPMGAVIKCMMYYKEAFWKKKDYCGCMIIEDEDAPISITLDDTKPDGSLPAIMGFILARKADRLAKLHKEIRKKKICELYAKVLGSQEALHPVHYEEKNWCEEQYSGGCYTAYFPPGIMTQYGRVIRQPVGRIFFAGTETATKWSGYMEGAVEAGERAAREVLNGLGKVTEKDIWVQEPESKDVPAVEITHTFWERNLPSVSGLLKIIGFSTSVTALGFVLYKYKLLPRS
From the text: (§1) Human recombinant monoamine oxidase proteins MAO-A and MAO-B were purchased from Sigma Aldrich. MAOs catalyze the oxidative deamination of primary, secondary and tertiary amines. In order to monitor MAO enzymatic activities and/or their inhibition rate by inhibitor(s) of interest, a fluorescence-based (inhibitor)-screening assay was set up. 3-(2-Aminophenyl)-3-oxopropanamine (kynuramine dihydrobromide, Sigma Aldrich), a non fluorescent compound was chosen as a substrate. Kynuramine is a non-specific substrate for both MAO-A and MAO-B activities. While undergoing oxidative deamination by MAO activities, kynuramine is converted into 4-hydroxyquinoline (4-HQ), a resulting fluorescent product.
(§2) The monoamine oxidase activity was estimated by measuring the conversion of kynuramine into 4-hydroxyquinoline. Assays were conducted in 96-well black plates with clear bottom (Corning) in a final volume of 100 μL. The assay buffer was 100 mM HEPES, pH 7.5. Each experiment was performed in triplicate within the same experiment.
(§3) Briefly, a fixed amount of MAO (0.25 μg for MAO-A and 0.5 μg for MAO-B) was incubated on ice for 15 minutes in the reaction buffer, in the absence and/or in the presence of various concentrations of inhibitor (e.g., from 0 to 50 μM, depending on the inhibitor strength). Tranylcypromine (Biomol International) was used as a control for inhibition.
(§4) After leaving the enzyme(s) interacting with the inhibitor, 60 to 90 μM of kynuramine was added to each reaction for MAO-B and MAO-A assay respectively, and the reaction was left for 1 hour at 37° C. in the dark. The oxidative deamination of the substrate was stopped by adding 50 μL (v/v) of NaOH 2N. The conversion of kynuramine to 4-hydroxyquinoline, was monitored by fluorescence (excitation at 320 nm, emission at 360 nm) using a microplate reader (Infinite 200, Tecan). Arbitrary units were used to measure levels of fluorescence produced in the absence and/or in the presence of inhibitor.
(§5) The maximum of oxidative deamination activity was obtained by measuring the amount of 4-hydroxyquinoline formed from kynuramine deamination in the absence of inhibitor and corrected for background fluorescence in the absence of MAO enzymes. The Ki (IC50) of each inhibitor was determined at Vmax/2.

[2] = target: T2, Human recombinant LSD1 protein (Homo sapiens, UniProt O60341); experiment: Inhibition of LSD1 (Amplex Red peroxide/peroxidase-coupled demethylase assay, di-methylated H3-K4 peptide substrate); conditions: Ki (IC50) estimated at half of the maximum activity; range class
T2 construct: purchased BPS Bioscience Inc
From the text: The compounds of the invention can be tested for their ability to inhibit LSD1. The ability of the compounds of the invention to inhibit LSD1 can be tested as follows. Human recombinant LSD1 protein was purchased from BPS Bioscience Inc. In order to monitor LSD1 enzymatic activity and/or its inhibition rate by our inhibitor(s) of interest, di-methylated H3-K4 peptide (Millipore) was chosen as a substrate. The demethylase activity was estimated, under aerobic conditions, by measuring the release of H2O2 produced during the catalytic process, using the Amplex® Red peroxide/peroxidase-coupled assay kit (Invitrogen).
Briefly, a fixed amount of LSD1 was incubated on ice for 15 minutes, in the absence and/or in the presence of various concentrations of inhibitor (e.g., from 0 to 75 μM, depending on the inhibitor strength). Tranylcypromine (Biomol International) was used as a control for inhibition. Within the experiment, each concentration of inhibitor was tested in triplicate. After leaving the enzyme interacting with the inhibitor, 12.5 μM of di-methylated H3-K4 peptide was added to each reaction and the experiment was left for 1 hour at 37° C. in the dark. The enzymatic reactions were set up in a 50 mM sodium phosphate, pH 7.4 buffer. At the end of the incubation, Amplex® Red reagent and horseradish peroxidase (HPR) solution were added to the reaction according to the recommendations provided by the supplier (Invitrogen), and left to incubate for 30 extra minutes at room temperature in the dark. A 1 μM H2O2 solution was used as a control of the kit efficiency. The conversion of the Amplex® Red reagent to resorufin due to the presence of H2O2 in the assay, was monitored by fluorescence (excitation at 540 nm, emission at 590 nm) using a microplate reader (Infinite 200, Tecan). Arbitrary units were used to measure level of H2O2 produced in the absence and/or in the presence of inhibitor.
The maximum demethylase activity of LSD1 was obtained in the absence of inhibitor and corrected for background fluorescence in the absence of LSD1. The Ki (IC50) of each inhibitor was estimated at half of the maximum activity.

[3] = target: T3, Human recombinant monoamine oxidase MAO-B (Homo sapiens, UniProt P27338); experiment: Monoamine oxidase assay, kynuramine fluorescence, MAO-B; conditions: Ki (IC50) determined at Vmax/2; range class
T3 construct: purchased Sigma Aldrich
T3 sequence (P27338 1-520): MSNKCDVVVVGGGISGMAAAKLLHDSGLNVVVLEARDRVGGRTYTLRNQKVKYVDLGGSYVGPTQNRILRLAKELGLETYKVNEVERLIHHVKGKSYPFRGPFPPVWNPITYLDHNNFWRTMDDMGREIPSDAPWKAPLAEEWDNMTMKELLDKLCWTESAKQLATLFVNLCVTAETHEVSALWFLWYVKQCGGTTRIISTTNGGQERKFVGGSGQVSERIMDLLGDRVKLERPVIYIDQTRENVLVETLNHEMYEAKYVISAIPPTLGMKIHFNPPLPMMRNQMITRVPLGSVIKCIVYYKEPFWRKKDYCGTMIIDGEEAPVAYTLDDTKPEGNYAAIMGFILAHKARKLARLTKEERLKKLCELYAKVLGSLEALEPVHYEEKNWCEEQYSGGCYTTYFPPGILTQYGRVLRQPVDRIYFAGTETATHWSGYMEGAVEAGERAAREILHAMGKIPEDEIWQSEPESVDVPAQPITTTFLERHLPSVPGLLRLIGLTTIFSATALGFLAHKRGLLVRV
From the text: as §1, §2, §3, §4, §5

Row | SMILES | Ki [1] | Ki [2] | Ki [3]
1 | N[C@H]1C[C@@H]1c1ccc(Nc2cccc(Cl)c2)nc1 (racemic) [Example 1, 5-((trans)-2-aminocyclopropyl)-N-(3-chlorophenyl)pyridin-2-amine hydrochloride] | 1 to 40 µM | 100 to 1000 nM | 1 to 100 nM
2 | N[C@H]1C[C@@H]1c1ccc(Nc2ccc(Cl)cc2)nc1 (racemic) [Example 2, 5-((trans)-2-aminocyclopropyl)-N-(4-chlorophenyl)pyridin-2-amine hydrochloride] | 1 to 40 µM | 100 to 1000 nM | 1 to 100 nM
3 | N[C@H]1C[C@@H]1c1ccc(Nc2ccc(C(F)(F)F)cc2)nc1 (racemic) [Example 3, 5-((trans)-2-aminocyclopropyl)-N-(4-(trifluoromethyl)phenyl)pyridin-2-amine hydrochloride] | 1 to 40 µM | 100 to 1000 nM | 100 to 1000 nM
4 | COc1cccc(Nc2ccc([C@H]3C[C@@H]3N)cn2)c1 (racemic) [Example 4, 5-((trans)-2-aminocyclopropyl)-N-(3-methoxyphenyl)pyridin-2-amine hydrochloride] | 1 to 40 µM | 100 to 1000 nM | 1000 to 40000 nM
5 | COc1ccc(Nc2ccc([C@H]3C[C@@H]3N)cn2)cc1 (racemic) [Example 5, 5-((trans)-2-aminocyclopropyl)-N-(4-methoxyphenyl)pyridin-2-amine hydrochloride] | 1 to 40 µM | 100 to 1000 nM | 100 to 1000 nM
6 | Cc1ccc(Nc2ccc([C@H]3C[C@@H]3N)cn2)cc1 (racemic) [Example 6, 5-((trans)-2-aminocyclopropyl)-N-p-tolylpyridin-2-amine hydrochloride] | 1 to 40 µM | 100 to 1000 nM | 1000 to 40000 nM
7 | Cc1cccc(Nc2ccc([C@H]3C[C@@H]3N)cn2)c1 (racemic) [Example 7, 5-((trans)-2-aminocyclopropyl)-N-m-tolylpyridin-2-amine hydrochloride] | 1 to 40 µM | 100 to 1000 nM | 100 to 1000 nM
8 | N#Cc1cccc(Nc2ccc([C@H]3C[C@@H]3N)cn2)c1 (racemic) [Example 9, 3-(5-((trans)-2-aminocyclopropyl)pyridin-2-ylamino)benzonitrile hydrochloride] | 1 to 40 µM | 100 to 1000 nM | 100 to 1000 nM
9 | NC(=O)c1cccc(Nc2ccc([C@H]3C[C@@H]3N)cn2)c1 (racemic) [Example 10, 3-(5-((trans)-2-aminocyclopropyl)pyridin-2-ylamino)benzamide hydrochloride] | 1 to 40 µM | 100 to 1000 nM | 1000 to 40000 nM
10 | N[C@H]1C[C@@H]1c1ccc(NCc2cccc(Cl)c2)nc1 (racemic) [Example 12, 5-((trans)-2-aminocyclopropyl)-N-(3-chlorobenzyl)pyridin-2-amine hydrochloride] | 1 to 40 µM | 100 to 1000 nM | 1000 to 40000 nM
11 | N[C@H]1C[C@@H]1c1ccc(NCc2ccc(C(F)(F)F)cc2)nc1 (racemic) [Example 15, 5-((trans)-2-aminocyclopropyl)-N-(4-(trifluoromethyl)benzyl)pyridin-2-amine hydrochloride] | 1 to 40 µM | 100 to 1000 nM | 1000 to 40000 nM
12 | Cc1cccc(CNc2ccc([C@H]3C[C@@H]3N)cn2)c1 (racemic) [Example 16, 5-((trans)-2-aminocyclopropyl)-N-(3-methylbenzyl)pyridin-2-amine hydrochloride] | 1 to 40 µM | 100 to 1000 nM | 1000 to 40000 nM
13 | Cc1ccc(CNc2ccc([C@H]3C[C@@H]3N)cn2)cc1 (racemic) [Example 17, 5-((trans)-2-aminocyclopropyl)-N-(4-methylbenzyl)pyridin-2-amine hydrochloride] | 1 to 40 µM | 100 to 1000 nM | 1000 to 40000 nM
14 | N#Cc1cccc(CNc2ccc([C@H]3C[C@@H]3N)cn2)c1 (racemic) [Example 18, 3-((5-((trans)-2-aminocyclopropyl)pyridin-2-ylamino)methyl)benzonitrile hydrochloride] | 1 to 40 µM | 100 to 1000 nM | 1000 to 40000 nM

Reference: patent US9061966B2, “Cyclopropylamine inhibitors of oxidases” (ORYZON GENOMICS S.A., priority 2010, dated 2015)
